Holding throughout (type): in vivo
In test [1] the test system is giant foxtail (Setaria faberii). The experiment in a line: Test A preemergence. To be noted: Setaria faberi, pre-emergence, 240 h; for pest or weed control at 125 g/ha: 125 g ai/ha; for pest or weed control at 500 g/ha: 500 g ai/ha. An outline of the steps:
(§1)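 Seeds sprayed preemergence with a directed soil spray, or plants at 2 to 10 cm height and one- to two-leaf stage sprayed postemergence, with test chemicals in a non-phytotoxic solvent mixture containing surfactant, in loam soil–sand blend. Injury rated visually against untreated controls after about 10 d in greenhouse, 0 (no effect) to 100 (complete control).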

Test [2] deals with Galium (catchweed bedstraw, Galium aparine). The experiment in a line: Test A postemergence. Particulars: Galium, post-emergence, 240 h; for pest or weed control at 125 g/ha: 125 g ai/ha. An outline of the steps: as §1
Another test has as its system Kochia (Kochia scoparia). The experiment in a line: Test A postemergence. Particulars: Bassia scoparia, post-emergence, 240 h; for pest or weed control at 125 g/ha: 125 g ai/ha. In a few lines: as §1
The test system of test [3] is barnyardgrass (Echinochloa crus-galli). The experiment in a line: Test A postemergence. To be noted: Echinochloa crus-galli, post-emergence, 240 h; for pest or weed control at 125 g/ha: 125 g ai/ha. An outline of the steps:
as §1

Test [4] relates to blackgrass (Alopecurus myosuroides). The test can be described thus: Test A postemergence. To be noted: Alopecurus myosuroides, post-emergence, 240 h; for pest or weed control at 125 g/ha: 125 g ai/ha. An outline of the steps: as §1
For the next test, the system named is corn (Zea mays). The experiment in a line: Test A postemergence. Particulars: Zea mays, post-emergence, 240 h. In a few lines:
as §1

Test [5] relates to giant foxtail (Setaria faberii). The test can be described thus: Test A postemergence. Particulars: Setaria faberi, post-emergence, 240 h; for pest or weed control at 125 g/ha: 125 g ai/ha. In a few lines: as §1
Test [6] deals with pigweed (Amaranthus retroflexus). The test can be described thus: Test A postemergence. To be noted: Amaranthus retroflexus, post-emergence, 240 h; for pest or weed control at 125 g/ha: 125 g ai/ha. In a few lines: as §1
For test [7], the system named is ragweed (common ragweed, Ambrosia elatior). The test can be described thus: Test A postemergence. To be noted: Ambrosia artemisiifolia, post-emergence, 240 h; for pest or weed control at 125 g/ha: 125 g ai/ha. An outline of the steps:
as §1

The test system of test [8] is ryegrass, Italian (Italian ryegrass, Lolium multiflorum). The test can be described thus: Test A postemergence. Particulars: Lolium multiflorum, post-emergence, 240 h; for pest or weed control at 125 g/ha: 125 g ai/ha. An outline of the steps: as §1
Test [9] relates to wheat (Triticum aestivum). The experiment in a line: Test A postemergence. Particulars: Triticum aestivum, post-emergence, 240 h; for plant injury at 125 g/ha: 125 g ai/ha. An outline of the steps: as §1
Test [10] deals with barnyardgrass (Echinochloa crus-galli). The test can be described thus: Test B flooded paddy test. Particulars: Echinochloa crus-galli, Flood, 250 g ai/ha, read-out: Barnyardgrass plant response rating. An outline of the steps:
(§2)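 Flooding to 3 cm over soil accompanied treatment, which consisted of adding compound to the standing water around 2-leaf plants; depth was then maintained. Visual assessment versus controls followed at 13 to 15 d (scale 0–100, 0 meaning no effect).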

The subject of test [11] is ducksalad (Heteranthera limosa). The test can be described thus: Test B flooded paddy test. Particulars: Heteranthera limosa, Flood, 250 g ai/ha, read-out: Ducksalad plant response rating. An outline of the steps: as §2
Another test deals with rice (Oryra sativa). The experiment in a line: Test B flooded paddy test. Particulars: Oryza sativa, Flood, 250 g ai/ha, read-out: Rice plant response rating. An outline of the steps:
as §2

In test [12] the test system is sedge, umbrella (small-flower umbrella sedge, Cyperus difformis). The test can be described thus: Test B flooded paddy test. To be noted: Cyperus difformis, Flood, 250 g ai/ha, read-out: Sedge, Umbrella plant response rating. An outline of the steps: as §2
Where [13] appears, read: scale of 0 to 100 where 0 is no effect and 100 is complete control.
Setting [14] is: 0 to 100 scale where 0 is no effect and 100 is complete control.

Like-named read-outs stand apart in the source and are kept apart here.

As to `O=C1NC[C@H](c2ccc(F)c(OC(F)(F)C(F)(F)Br)c2)[C@H]1C(=O)Nc1cccc(F)c1F` (racemic) [Compound 914], the pest or weed control at 125 g/ha came to 90% in test [1] (preemergence, 0 to 100 scale where 0 is no effect and 100 is complete control, read-out: Foxtail, Giant plant response rating); 60% in [2] (postemergence, visual injury rating after approximately 10 d, read-out: Galium plant response rating (0 to 100 scale, 0 no effect, 100 complete control)); 70% in the test with Kochia (Kochia scoparia) (postemergence, visual injury rating after approximately 10 d, read-out: Kochia plant response rating (0 to 100 scale, 0 no effect, 100 complete control)); 0% in [3] (postemergence, visual injury rating after approximately 10 d, read-out: Barnyardgrass plant response rating (0 to 100 scale, 0 no effect, 100 complete control)); 0% in [4] (postemergence, visual injury rating after approximately 10 d, read-out: Blackgrass plant response rating (0 to 100 scale, 0 no effect, 100 complete control)); 70% in [5] (postemergence, visual injury rating after approximately 10 d, read-out: Foxtail, Giant plant response rating (0 to 100 scale, 0 no effect, 100 complete control)). Besides, the pest or weed control at 125 g/ha was determined as 80% in [6] (postemergence, visual injury rating after approximately 10 d, read-out: Pigweed plant response rating (0 to 100 scale, 0 no effect, 100 complete control)); 20% in test [7] (postemergence, visual injury rating after approximately 10 d, read-out: Ragweed plant response rating (0 to 100 scale, 0 no effect, 100 complete control)); 0% in [8] (postemergence, visual injury rating after approximately 10 d, read-out: Ryegrass, Italian plant response rating (0 to 100 scale, 0 no effect, 100 complete control)). The pest or weed control at 500 g/ha in [1] (Preemergence, visual injury vs untreated controls after approximately 10 d, read-out: Foxtail, Giant plant response rating (0 to 100 scale where 0 is no effect and 100 is complete control)) was 90%. Also, the plant injury at 125 g/ha with corn (Zea mays) (125 g ai/ha, postemergence, visual injury rating after approximately 10 d, read-out: Corn plant response rating (0 to 100 scale, 0 no effect, 100 complete control)) was 0%; in test [9] (postemergence, visual injury rating after approximately 10 d, read-out: Wheat plant response rating (0 to 100 scale, 0 no effect, 100 complete control)), 0%. The pest or weed control at 250 g/ha in [10] (setting [13]) was determined as 0%; in [11] (setting [13]), 50%; in the test on rice (Oryra sativa) (setting [13]) it was 15%; in test [12] (setting [13]), 0%.
For `CC(=O)Oc1ccc(F)c(NC(=O)[C@H]2C(=O)N(C)C[C@@H]2c2cc(F)cc(F)c2)c1` [Compound 1019], the pest or weed control at 125 g/ha in [1] (Preemergence, visual injury rating after approximately 10 d, read-out: Foxtail, Giant plant response rating (0 to 100 scale, 0 is no effect, 100 is complete control)) is 0%; in test [2] (Postemergence, visual injury after approximately 10 d, 0 to 100 scale where 0 is no effect and 100 is complete control, read-out: Plant response rating, Galium), 0%; with Kochia (Kochia scoparia) (Postemergence, visual injury after approximately 10 d, 0 to 100 scale where 0 is no effect and 100 is complete control, read-out: Plant response rating, Kochia), 0%; in test [3] (Postemergence, visual injury after approximately 10 d, 0 to 100 scale where 0 is no effect and 100 is complete control, read-out: Plant response rating, Barnyardgrass) it was 0%; in test [4] (Postemergence, visual injury after approximately 10 d, 0 to 100 scale where 0 is no effect and 100 is complete control, read-out: Plant response rating, Blackgrass), 0%; in test [5] (Postemergence, visual injury after approximately 10 d, 0 to 100 scale where 0 is no effect and 100 is complete control, read-out: Plant response rating, Foxtail, Giant) it was 0%. Also, the pest or weed control at 125 g/ha was determined as 0% in test [6] (Postemergence, visual injury after approximately 10 d, 0 to 100 scale where 0 is no effect and 100 is complete control, read-out: Plant response rating, Pigweed); 0% in test [7] (Postemergence, visual injury after approximately 10 d, 0 to 100 scale where 0 is no effect and 100 is complete control, read-out: Plant response rating, Ragweed); 0% in test [8] (Postemergence, visual injury after approximately 10 d, 0 to 100 scale where 0 is no effect and 100 is complete control, read-out: Plant response rating, Ryegrass, Italian). Further, the pest or weed control at 500 g/ha was 0% in test [1] (preemergence, visual injury rating about 10 d after treatment, 0 to 100 scale (0 no effect, 100 complete control), read-out: Foxtail, Giant plant response rating); 0% in test [2] (500 g ai/ha, postemergence, visual injury, 0 to 100 scale (0 no effect, 100 complete control), approx. 10 d, read-out: Plant response rating, Galium); 0% in the test on Kochia (Kochia scoparia) (500 g ai/ha, postemergence, visual injury, 0 to 100 scale (0 no effect, 100 complete control), approx. 10 d, read-out: Plant response rating, Kochia); 0% in [3] (500 g ai/ha, postemergence, visual injury, 0 to 100 scale (0 no effect, 100 complete control), approx. 10 d, read-out: Plant response rating, Barnyardgrass); 0% in [4] (500 g ai/ha, postemergence, visual injury, 0 to 100 scale (0 no effect, 100 complete control), approx. 10 d, read-out: Plant response rating, Blackgrass); 0% in test [5] (500 g ai/ha, postemergence, visual injury, 0 to 100 scale (0 no effect, 100 complete control), approx. 10 d, read-out: Plant response rating, Foxtail, Giant). Also, the pest or weed control at 500 g/ha stood at 0% in test [6] (500 g ai/ha, postemergence, visual injury, 0 to 100 scale (0 no effect, 100 complete control), approx. 10 d, read-out: Plant response rating, Pigweed); 0% in test [7] (500 g ai/ha, postemergence, visual injury, 0 to 100 scale (0 no effect, 100 complete control), approx. 10 d, read-out: Plant response rating, Ragweed); 0% in [8] (500 g ai/ha, postemergence, visual injury, 0 to 100 scale (0 no effect, 100 complete control), approx. 10 d, read-out: Plant response rating, Ryegrass, Italian). This compound also had a Corn plant response rating (crop injury, 0 = no effect, 100 = complete kill) at 125 g/ha in the test on corn (Zea mays) (125 g ai/ha, Postemergence, visual injury after approximately 10 d, 0 to 100 scale where 0 is no effect and 100 is complete control) of 0%. This compound came in with a Corn plant response rating (crop injury, 0 = no effect, 100 = complete kill) at 500 g/ha in the test with corn (Zea mays) (500 g ai/ha, postemergence, visual injury, 0 to 100 scale (0 no effect, 100 complete control), approx. 10 d) of 0%. Also, in test [9] (Postemergence, visual injury after approximately 10 d, 0 to 100 scale where 0 is no effect and 100 is complete control, read-out: Plant response rating, Wheat), the plant injury at 125 g/ha is 0%. Further, the plant injury at 500 g/ha in test [9] (500 g ai/ha, postemergence, visual injury, 0 to 100 scale (0 no effect, 100 complete control), approx. 10 d, read-out: Plant response rating, Wheat) worked out at 0%. Besides, the pest or weed control at 250 g/ha (in test [10] (setting [14]); in test [11] (setting [14]); in the test with rice (Oryra sativa) (setting [14]); in test [12] (setting [14])) was 0% throughout.
